Laboratory results as given in ChEMBL document CHEMBL1131887, “Blockers of human T cell Kv1.3 potassium channels using de novo ligand design and solid-phase parallel combinatorial chemistry” (Bioorg Med Chem Lett, 1999).

Each compound was assayed against Potassium voltage-gated channel subfamily A member 3 (Homo sapiens, UniProt P22001) (assay: Displacement of [125I]- ChTX from human T cell voltage-gated potassium channel subunit Kv1.3).
Assay type: cell-based

Sequence of Potassium voltage-gated channel subfamily A member 3 (P22001 whole entry): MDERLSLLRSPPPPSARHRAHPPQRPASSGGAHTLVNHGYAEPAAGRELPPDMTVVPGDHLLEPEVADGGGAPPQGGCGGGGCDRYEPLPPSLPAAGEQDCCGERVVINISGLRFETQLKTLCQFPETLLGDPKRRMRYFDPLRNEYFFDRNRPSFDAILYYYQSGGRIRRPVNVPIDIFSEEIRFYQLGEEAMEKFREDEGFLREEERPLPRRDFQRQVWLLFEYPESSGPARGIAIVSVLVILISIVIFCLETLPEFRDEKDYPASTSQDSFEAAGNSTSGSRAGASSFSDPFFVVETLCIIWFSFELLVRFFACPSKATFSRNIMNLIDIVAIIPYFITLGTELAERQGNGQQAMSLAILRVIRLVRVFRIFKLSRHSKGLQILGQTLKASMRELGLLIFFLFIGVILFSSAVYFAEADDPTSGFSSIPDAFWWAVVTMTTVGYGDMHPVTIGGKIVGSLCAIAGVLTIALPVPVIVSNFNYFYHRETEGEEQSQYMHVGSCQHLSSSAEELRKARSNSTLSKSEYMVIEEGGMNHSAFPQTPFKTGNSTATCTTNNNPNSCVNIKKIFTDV

| IC50 [µM] | SMILES |
| --- | --- |
| 6.1 | CCCCNC(=O)c1cc(/C=C/Cc2ccccc2)ccc1-c1ccc(Cl)cc1 |
| 5.6 | CC(C)NC(=O)c1cc(/C=C/Cc2ccccc2)ccc1-c1ccc(Cl)cc1 |
| 3.7 | CC(C)NC(=O)c1cc(/C=C/c2ccc(Cl)c(F)c2)ccc1-c1ccc(Cl)cc1 |
| 2.9 | CNC(=O)c1cc(/C=C/c2ccc(OCc3ccccc3)c(OCc3ccccc3)c2)ccc1-c1ccc(Cl)cc1 |
| 10.1 | CC(C)NC(=O)c1cc(/C=C/c2cccc(Cl)c2)ccc1-c1ccc(Cl)cc1 |
| 9.7 | CCCNC(=O)c1cc(/C=C/c2ccc(F)cc2)ccc1-c1ccc(Cl)cc1 |
| 3.2 | CCNC(=O)c1cc(/C=C/CCc2ccccc2)ccc1-c1ccc(Cl)cc1 |
| 4 | CCCNC(=O)c1cc(/C=C/CCc2ccccc2)ccc1-c1ccc(Cl)cc1 |
| 0.2 | CCCCC/N=c1\ccn(Cc2ccccc2)c2ccccc12 [CP-339818] |
| 9.9 | CC(C)NC(=O)c1cc(/C=C/c2ccc(OCc3ccccc3)cc2)ccc1-c1ccc(Cl)cc1 |
| 3.9 | NC(N)=NNC(=O)c1cc(/C=C/c2ccc(F)cc2)ccc1-c1ccc(Cl)cc1 |
| 5.8 | CCCNC(=O)c1cc(/C=C/Cc2ccccc2)ccc1-c1ccc(Cl)cc1 |
| 8 | CCCCNC(=O)c1cc(/C=C/c2ccccc2F)ccc1-c1ccc(Cl)cc1 |
